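Assay format: 96-well plates, 48-hour exposure. GI50 = concentration required for 50% inhibition of growth. TGI is the concentration that stops growth completely.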
How the values were obtained:
Assay in all cases: NCI tumour cell line growth inhibition, 48 h
PC-3 prostate = tested on: PC-3 prostate
DU-145 prostate = tested on: DU-145 prostate
NCI-H522 lung = tested on: NCI-H522 lung
SK-MEL-2 melanoma = tested on: SK-MEL-2 melanoma
HS 578T breast = tested on: HS 578T breast
OVCAR-3 ovarian = tested on: OVCAR-3 ovarian
MDA-MB-435 = tested on: MDA-MB-435
T-47D breast = tested on: T-47D breast
DLD-1 colon = tested on: DLD-1 colon
KM20L2 colon = tested on: KM20L2 colon
DMS 114 small cell lung = tested on: DMS 114 small cell lung
XF 498 CNS = tested on: XF 498 CNS
LXFL 529 NSCLC = tested on: LXFL 529 NSCLC
BT-549 breast = tested on: BT-549 breast
MDA-N = tested on: MDA-N

SMILES	TGI (PC-3 prostate)	TGI (DU-145 prostate)	TGI (NCI-H522 lung)	TGI (SK-MEL-2 melanoma)	TGI (HS 578T breast)	TGI (OVCAR-3 ovarian)	TGI (MDA-MB-435)	TGI (T-47D breast)	TGI (DLD-1 colon)	TGI (KM20L2 colon)	TGI (DMS 114 small cell lung)	TGI (XF 498 CNS)	TGI (LXFL 529 NSCLC)	TGI (BT-549 breast)	TGI (MDA-N)	GI50 (NCI-H522 lung)	GI50 (HS 578T breast)	GI50 (KM20L2 colon)	GI50 (DMS 114 small cell lung)	GI50 (LXFL 529 NSCLC)
Oc1cn(-c2ccc(Cl)cc2)nc1-c1n[nH]c(=S)n1-c1ccccc1	> 100 µM	> 100 µM	19.5 µM	52.7 µM	55.1 µM	9.4 µM	5.09 µM	> 100 µM	–	–	–	–	–	–	–	–	–	–	–	–
COc1ccc2c(c1)CCCN2CCCCCCCCCCN(CCC(C)C)CCC(C)C	–	–	5.68 µM	22.8 µM	–	17.3 µM	–	–	22.6 µM	23.1 µM	19.5 µM	20.9 µM	21.8 µM	–	–	–	–	–	–	–
Nc1n[nH]c(=O)c2c1c(I)cn2C1OC(CO)C(O)C1O (configuration not stated)	–	–	–	0.049 µM	–	> 100 µM	–	–	> 100 µM	> 100 µM	6.62 µM	8.3 µM	> 100 µM	–	–	–	–	–	–	–
CN(C)CCNC(=O)c1cccc2ccc(-c3ccc(F)cc3)nc12	–	–	16.9 µM	21.3 µM	–	33.5 µM	–	–	17.9 µM	20.4 µM	17.8 µM	10.2 µM	–	–	–	–	–	–	–	–
COc1ccc(-c2nc3ncccn3c2-c2ccc(SC)cc2)cc1	> 100 µM	–	0.502 µM	> 100 µM	7.7 µM	2.09 µM	0.499 µM	–	–	–	–	–	–	46.5 µM	–	–	–	–	–	–
Cc1cc(/N=C/c2ccc(F)cc2)n(-c2ccccc2)n1	> 100 µM	> 100 µM	> 100 µM	> 100 µM	> 100 µM	> 100 µM	> 100 µM	> 100 µM	–	–	–	–	–	> 100 µM	> 100 µM	–	–	–	–	–
O=C(Nc1ccc([N+](=O)[O-])cc1[N+](=O)[O-])C(=O)C(C(=O)c1ccc2ccccc2c1)C1OC(=O)c2ccccc21 (configuration not stated)	–	–	22.8 µM	43.4 µM	–	–	–	–	81.4 µM	61.9 µM	45.1 µM	–	26 µM	–	–	–	–	–	–	–
Cc1cc2c(cc1C(=O)c1ccc(N)cc1)OCO2	> 100 µM	> 100 µM	54.4 µM	74 µM	> 100 µM	0.966 µM	23.4 µM	> 100 µM	–	–	–	–	–	> 100 µM	35.1 µM	–	–	–	–	–
COc1cc(/C=C/C(=O)Oc2ccc(NC(C)=O)cc2)ccc1C(=O)O/C=C/c1ccccc1	–	–	> 100 µM	> 100 µM	–	> 100 µM	–	–	> 100 µM	> 100 µM	> 100 µM	> 100 µM	–	–	–	–	–	–	–	–
CN(C)CCCn1cnc2cc(Cl)c(Cl)cc21	> 100 µM	> 100 µM	> 100 µM	> 100 µM	> 100 µM	> 100 µM	> 100 µM	> 100 µM	–	–	–	–	–	> 100 µM	> 100 µM	–	–	–	–	–
NCCc1cc(O)c(O)cc1O	> 100 µM	32.4 µM	3.44 µM	71.7 µM	> 100 µM	58.4 µM	32.7 µM	73.2 µM	–	–	–	–	–	70.6 µM	47 µM	1.53 µM	34.4 µM	–	–	–
CCOC(=O)c1c2c(n(Cc3ccccc3)c1C)C(=O)C(=O)c1ccccc1-2	5.14 µM	0.972 µM	–	–	2.19 µM	0.167 µM	0.112 µM	2.19 µM	–	–	–	–	–	–	–	–	–	–	–	–
CCCOC(=O)CNC(=O)OC(C)(C)C	–	–	> 100 µM	> 100 µM	–	> 100 µM	–	–	> 100 µM	> 100 µM	> 100 µM	> 100 µM	> 100 µM	–	–	–	–	–	–	–
N=C1C(=N)c2ccccc2-c2ccccc21.N=C1C(=N)c2ccccc2-c2ccccc21.N=C1C(=N)c2ccccc2-c2ccccc21.[Cl-].[Ru+2]	–	–	2.84 µM	–	–	3.08 µM	–	–	–	13.2 µM	3.07 µM	–	3.08 µM	–	–	–	–	5.37 µM	1.63 µM	1.61 µM
O=P1(c2ccccc2)Nc2ccccc2SSc2ccccc2N1	–	–	29 µM	32.2 µM	–	28.3 µM	–	–	31.8 µM	33.7 µM	43 µM	32.7 µM	–	–	–	–	–	–	–	–
Cc1cccc2c1Sc1ccccc1C2NC(=O)CCN(C)C (configuration not stated)	–	–	–	–	–	–	–	–	> 100 µM	> 100 µM	> 100 µM	–	> 100 µM	–	–	–	–	–	–	–
CCc1nc(N)nc(N)c1-c1ccc([N+](C)(C)C)cc1	> 100 µM	> 100 µM	> 100 µM	> 100 µM	> 100 µM	> 100 µM	> 100 µM	> 100 µM	–	–	–	–	–	> 100 µM	> 100 µM	–	–	–	–	–
COc1ccc(/C(Cl)=C(\C=O)c2ccc(OC)cc2)cc1	–	–	> 100 µM	> 100 µM	–	> 100 µM	–	–	> 100 µM	> 100 µM	> 100 µM	–	> 100 µM	–	–	–	–	–	–	–
COc1ccc(C2=C3SC=c4ccccc4=C3ON=C2c2ccccc2)cc1	> 100 µM	> 100 µM	> 100 µM	> 100 µM	> 100 µM	> 100 µM	> 100 µM	> 100 µM	–	–	–	–	–	> 100 µM	–	–	–	–	–	–
CC(=O)NNc1nc(-c2ccc([N+](=O)[O-])cc2)c(C#N)c(=O)n1C	> 100 µM	> 100 µM	45.6 µM	> 100 µM	99.5 µM	31.4 µM	> 100 µM	> 100 µM	–	–	–	–	–	23 µM	> 100 µM	–	–	–	–	–
CN(C)C(=O)/C=C/c1c[nH]c(=O)[nH]c1=O	–	–	> 500 µM	> 500 µM	–	> 500 µM	–	–	> 500 µM	> 500 µM	> 500 µM	–	–	–	–	–	–	–	–	–
